Laboratory results published in PMC11892739, “Site-specific molecular glues for the 14-3-3/Tau pS214 protein–protein interaction via reversible covalent imine tethering” (RSC Medicinal Chemistry, 2025).

Test system: 14-3-3γ/Tau pS324 interaction
Test: Fluorescence anisotropy 14-3-3γ titration with compound and monovalent Tau pS324 peptide
Format: binding
Details: for apparent cooperativity factor (app. α), 14-3-3γ/Tau pS324: 2D titrations, 14-3-3γ titrated at varied compound concentrations, saturation of the ratio
Experimental: FA assays in which 14-3-3γ was titrated to a constant concentration of compound (250 μM) in the presence of the distinct monovalent Tau peptide (10 nM) were performed.
The determined stabilization factors are concentration-dependent (here 250 μM of compound) and might differ based on assay design. […] The app. α-factors of these compounds for both 14-3-3/Tau complexes were determined by 14-3-3γ titrations in the presence of varied concentrations of the particular compound (Fig. 5d and e). Both compounds reached saturation for both 14-3-3γ/Tau complexes enabling accurate determination of the α-factor. The app. α-factors of aldehydes 1 and 18 were plotted for both 14-3-3γ/Tau complexes to investigate phospho-binding site selective cooperativity (Fig. 5f and h). To do so, the stabilization factors at a given compound concentration were plotted against the compound concentration, leading to the determination of the app. α-factors. […]
chromatography (HisTrap high performance cartridges, Cytiva). […] Dialyzed protein was concentrated to ∼40 mg/mL, analyzed by Q -Tof LC/MS, and aliquots were flash -frozen for storage at −80 °C. […] Fractions containing the 14 -3-3 protein were pooled and concentrated to ∼60 mg/mL, analyzed Q -Tof LC/MS, and aliquots were flash -frozen for storage at −80°C.
Fluorescence Anisotropy – compound titration
Compound titration assays were performed by titrating compounds (in 1% DMSO, starting at 500 μM) in a 2-fold dilution series to preformed complex of fluorescein -labeled Tau pS2 (10 nM) and 14 -3-3ζ (100 nM) (which represents approximately 20% bound Tau pS2 peptide to 14 -3-3ζ to allow further complex formation by addition of fragments 1) in FA buffer (10 mM HEPES pH 7.4, 150 mM NaCl, 50 µM TCEP, 0.1% (v/v) Tween20, 0.1% (w/v) BSA). […] Measurements were performed directly after plate preparation, using a Tecan SPARK plate reader at room temperature ( λex: 485±20 nm; λem: 535±25 nm; mirror: automatic; flashes: 30; settle time: 1 ms; gain: optimal; Z -position: calculated from well). […]

`O=Cc1ccc(-n2ccnc2-c2ccccc2)cc1Br` [Compound 1] was tested, and the “apparent cooperativity factor (app. α), 14-3-3γ/Tau pS324” value was 6.8.
With `CCc1ccc(-c2nccn2-c2ccc(C=O)c(Br)c2)cc1` [Compound 18] the “SF250μM for the 14-3-3γ/Tau pS324 complex” value (250 μM compound, 10 nM Tau pS324 peptide, internal DMSO reference) was 3.2 and the “apparent cooperativity factor (app. α), 14-3-3γ/Tau pS324” value was 3.6.
